pKd: −log10 of the molar value. Counter-ions that a name gives are not always drawn.

These results are taken from patent US11478451B1, “Macrocyclic chlorine substituted indole derivatives” (Bayer Aktiengesellschaft, priority 2017, dated 2022).

One series concerns SUDHL5 cells. Description: Antiproliferation assay (CellTiter-Glo, 72 h), SUDHL5. To be noted: IC50, median; SUDHL5, 72 h; read-out: Antiproli SUDHL5 [M] (median). Format: cell-based. In short, it runs like this:
(§1)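 Treated cells sat 72 h in a humidified 37 °C incubator, outer wells unused, before CellTiter-Glo reagent and a 10 min wait preceded luminescence reading; identical measurement of a parallel day 0 plate defined time zero.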
In general terms: In ATP-based viability assays light output follows the ATP content of the culture.

A further series deals with SNU-389 cells. Description: Antiproliferation assay (CellTiter-Glo, 72 h), SNU-389. Format: cell-based. To be noted: IC50, median; SNU-389, 72 h; read-out: Antiproli SNU-389 [M] median. In outline:
as §1

For the next series, the system named is T47D cells. The series can be described thus: Antiproliferation assay (CellTiter-Glo, 72 h), T47D. Format: cell-based. The note with it: IC50, median, T47D (head printed T4713), read-out: Antiproli T4713 [M] median. The procedure:
(§2) Assessment of the Anti-Proliferative Effect of Compounds in Different Cell Lines
(§3) The impact of compounds on the proliferation of different cell lines was assessed using the CellTiter-Glo® Luminescent Cell Viability reagent from Promega (G7573).
(§4) In parallel, cells were plated in a reference (day 0) plate for time zero determination.
(§5) Rim wells were excluded. The cells were incubated for 72 h hours in a humidified incubator at 37° C. The day 0 plate was measured by adding 30 μL/well of CTG solution (CellTiter-Glo® Luminescent Cell Viability reagent, Promega G7573) to time zero wells in the reference plate followed by a 10 minutes incubation and luminescence reading at 0.1 ms. using the PHERAstar FS microplate reader (BMG Labtech).
(§6) After 72 h incubation, the treated plates were measured in the same way as the day 0 plate mentioned above.

Another series deals with MV-4-11 cells. Description: Antiproliferation assay (CellTiter-Glo, 72 h), MV-4-11. The series is classed as cell-based. The note with it: IC50, median; MV-4-11, 72 h; read-out: Antiproli MV-4-11 [M] median. In short, it runs like this:
as §1

The subject of another series is AMO-1 cells. Description: Antiproliferation assay (CellTiter-Glo, 72 h), AMO-1. The series is classed as cell-based. To be noted: IC50, median; AMO-1, 72 h; read-out: Antiproli AMO-1 [M] median. In outline:
as §1

A further series concerns HMC-1-8 cells. The series can be described thus: Antiproliferation assay (CellTiter-Glo, 72 h), HMC-1-8. The note with it: IC50, median; HMC-1-8, 72 h; read-out: Antiproli HMC-1-8 [M] median. The series is classed as cell-based. In short, it runs like this:
as §1

The next series deals with A2058 cells. Description: Antiproliferation assay (CellTiter-Glo, 72 h), A2058. The series is classed as cell-based. The note with it: IC50, median; A2058, 72 h; read-out: Antiproli A2058 [M] median. The procedure: as §2, §3, §4, §5, §6
The test system of another series is SK-BR-3 cells. The series can be described thus: Antiproliferation assay (CellTiter-Glo, 72 h), SK-BR-3. Format: cell-based. The note with it: IC50, median; SK-BR-3, 72 h; read-out: Antiproli SK-BR-3 [M] median. The procedure: as §2, §3, §4, §5, §6
For series [1], the system named is SUDHL10 cells. Description: Induction of cytotoxicity (CellTiter-Glo, 5 h), SUDHL10. The note with it: read-out: Cytotox SUDHL10 [M] (median); IC50, median; SUDHL10, 5 h.
Another series relates to KYSE-180 cells. The series can be described thus: Antiproliferation assay (CellTiter-Glo, 72 h), KYSE-180. The series is classed as cell-based. To be noted: IC50, median; KYSE-180, 72 h; read-out: Antiproli KYSE-180 [M] median. The procedure: as §2, §3, §4, §5, §6
In series [2] the test system is SUDHL10 cells. The series can be described thus: Antiproliferation assay (CellTiter-Glo, 72 h), SUDHL10. The series is classed as cell-based. To be noted: IC50, median; SUDHL10, 72 h; read-out: Antiproli SUDHL10 [M] (median). The procedure: as §2, §3, §4, §5, §6
The next series deals with DMS-114 cells. The series can be described thus: Antiproliferation assay (CellTiter-Glo, 72 h), DMS-114. The note with it: IC50, median; DMS-114, 72 h; read-out: Antiproli DMS-114 [M] median. Format: cell-based. In short, it runs like this: as §1
Another series deals with MCL-1 (Homo sapiens (Human), UniProt Q07820, K194A/K197A/R201A). Description: Protein-compound interaction assay (SPR assay). The series is classed as binding. The note with it: equilibrium dissociation constant, geometric mean, SPR 25° C. From the text:
Protein-Compound Interaction Assay (SPR Assay)
The ability of the compounds described in this invention to bind to MCL-1 may be determined using surface plasmon resonance (SPR). This allows for the quantification of binding in terms of the equilibrium dissociation constant (KD [M]), as well as association and dissociation rate constants (kon [1/M 1/s] and koff [1/s], respectively). The measurements may be performed using Biacore® T200 or Biacore® S200 instruments (GE Healthcare).
Subsequently, a solution of 1 M ethanolamine-HCl (GE Healthcare) was injected to block unreacted groups, resulting in approximately 400-2500 response units (RU) of immobilized protein. A reference surface was generated by treatment with NHS-EDC and ethanolamine-HCl.
The double-referenced sensorgrams were fit to a simple reversible Langmuir 1:1 reaction mechanism as implemented in the Biacore® T200 and S200 evaluation software (T200 evaluation software version 2.0 and S200 evaluation software version 1.0, GE Healthcare).
(In general: SPR reads the build-up and loss of mass on a sensor chip optically.)

MCL-1, sequence (Q07820 whole entry K194A/K197A/R201A, looked up): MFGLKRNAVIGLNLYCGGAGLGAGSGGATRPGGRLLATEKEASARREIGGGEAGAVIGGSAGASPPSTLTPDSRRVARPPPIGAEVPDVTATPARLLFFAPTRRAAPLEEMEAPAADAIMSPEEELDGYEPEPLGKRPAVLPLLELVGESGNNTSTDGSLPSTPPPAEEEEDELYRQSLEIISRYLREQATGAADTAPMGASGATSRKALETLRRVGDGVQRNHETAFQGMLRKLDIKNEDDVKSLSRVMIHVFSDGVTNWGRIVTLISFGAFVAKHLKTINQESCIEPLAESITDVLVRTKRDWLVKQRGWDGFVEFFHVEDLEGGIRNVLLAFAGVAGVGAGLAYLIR

Turning to `Cc1c2c(nn1C)CN(C)CCCCn1c(C(=O)O)c(CCCOc3cccc4ccccc34)c3ccc(Cl)c-2c31` (single isomer, unassigned; enantiomer 1) [Example 12, (+)-4-chloro-2,3,14-trimethyl-7-[3-(naphthalen-1-yloxy)propyl]-10,11,12,13,14,15-hexahydro-2H-pyrazolo[3′,4′:8,9][1,6]diazacycloundecino[10,11,1-hi]indole-8-carboxylic acid-N-ethylethanamine salt (Enantiomer 1)], the IC50 in the series on SUDHL5 cells came to 1.7e-07 M; in the series on SNU-389 cells it was 7.22e-07 M; in the series on T47D cells, 7.1e-06 M; in the series on MV-4-11 cells, 4.41e-07 M; in the series with AMO-1 cells, 3.3e-07 M; in the series on HMC-1-8 cells, 1.6e-06 M. Also, the IC50 in the series on A2058 cells came to 4.83e-06 M; in the series on SK-BR-3 cells it was 6.67e-07 M; in the series on SUDHL10 cells [1], 1.4e-07 M; with KYSE-180 cells it was 3.79e-06 M; in the series with SUDHL10 cells [2], 1.4e-07 M; in the series on DMS-114 cells it was 1.32e-06 M.

The term pKd denotes −log10 of the Kd, conventionally taken in molar units. Regarding `Cc1c2c(nn1C)CN(C)CCCCn1c(C(=O)O)c(CCCOc3cccc4cc(F)ccc34)c3ccc(Cl)c-2c31` (single isomer, unassigned; enantiomer 1) [Example 31, (+)-4-chloro-7-{3-[(6-fluoronaphthalen-1-yl)oxy]propyl}-2,3,14-trimethyl-10,11,12,13,14,15-hexahydro-2H-pyrazolo[3′,4′:8,9][1,6]diazacycloundecino[10,11,1-hi]indole-8-carboxylic acid-N-ethylethanamine salt (Enantiomer 1)], the pKd on MCL-1 was 9.37. Further, the IC50 stood at 2.75e-07 M in the series on MV-4-11 cells, 1.7e-07 M in the series on AMO-1 cells and 1.9e-06 M in the series on HMC-1-8 cells.
